Patent US20230381142A1, “ANTILEISHMANIAL COMPOUNDS, COMPOSITIONS AND USE THEREOF” (TRUSTEES OF BOSTON UNIVERSITY, priority 2022, published 2023)
≈ marks a conversion by molar mass, not a printed value.

Tests used:
[1] = Plasma protein binding (RED); type: in vitro ADME
Method: The unbound fraction of compound 1 in plasma was measured using a commercial RED (Rapid Equilibrium Dialysis) plate with inserts (Thermo) with a molecular weight membrane cut off of 8K. The relevant volume of spiked sample matrix was added into the corresponding sample chambers of the RED insert. Three volume equivalents of dialysis buffer were added to the buffer chamber. The dialysis plate was sealed and incubated at 37° C. on a plate shaker for approximately 4 h at 100 rpm. An equivalent volume was removed from each of the three buffer sample chambers and placed into its own well in a clean plate. A specific volume of control matrix was added to each buffer sample for matrix matching. Next, >3× volume of precipitation solvent (acetonitrile+internal standard) was added and the plate was centrifuged. A measured volume of the resulting supernatants was transferred into a clean plate and a specific volume of analytical grade water was added to all samples. Samples were analyzed using a compound-specific LC-MS/MS method to generate analyte peak area ratios which are representative of bound and free drug.

[2] = tested on: L. donovani intracellular amastigotes in B10R cells; test: UCSD L. donovani infection assay (Assay Conditions D); type: cell-based; conditions: Leishmania donovani
How it was run: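 B10R cells (300/well) infected with stationary-phase L. donovani WT promastigotes at 20 parasites/cell in DMEM high-glucose, 5% FBS, with compounds 72 h at 37° C., 5% CO2. Formaldehyde-fixed, DAPI-stained, imaged by high-content microscopy; 10-point 2-fold dilutions (screen at 10 μM) gave EC50 and host CC50.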

Whole blood stability = type: in vitro ADME; conditions: criterion: no % reduction over 120 min
[3] = tested on: L. donovani intracellular amastigotes infecting THP-1 cells; test: High content intracellular amastigote assay in THP-1 cells (Assay Conditions B; CDIPD screen); type: cell-based, Leishmania donovani; conditions: Leishmania donovani; THP-1 host cells
How it was run: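 THP-1 cells differentiated with 0.1 μM PMA for 48 h, then infected with stationary-phase promastigotes (L. major LV39 or L. donovani 1S/Cl2D) at 1:15 parasite-cell ratio. Compounds applied for 72 h at 37° C. Cells formaldehyde-fixed, DAPI-stained, imaged to count amastigotes and host cells.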

[4] = Solubility in Fasted Simulated Intestinal Fluid (FaSSIF); type: physicochemical; conditions: thermodynamic from solid
Method: Solubility of compounds using ChemiLuminescent Nitrogen Detection (CLND) was measured as described. Solubility of compounds using Charged Aerosol Detection (CAD) was measured as described. Solubility of solid compounds in Fasted Simulated Intestinal Fluid (FaSSIF) was measured as described.

[5] = Mouse microsomal stability; type: in vitro ADME; conditions: mouse liver microsomes
Method: Mouse microsomal stability assays were performed as described. Test compound (0.5 μM) was incubated with female CD1 mouse (Xenotech) liver microsomes and their action started with addition of excess NADPH (8 mg/mL 50 mM potassium phosphate buffer, pH 7.4). Aliquots (50 μL) of the incubation mixture were removed immediately (at time 0) and at 3, 6, 9, 15, and 30 min and mixed with acetonitrile (100 μL) to stop the reaction. Internal standard was added to all samples, the samples were centrifuged to sediment precipitated protein, and the plates were then sealed prior to UPLC-MS/MS analysis using a Quattro Premier XE (Waters Corporation, USA). XLfit (IDBS, UK) was used to calculate the exponential decay and consequently the rate constant (k) from the ratio of the peak area of test compound to internal standard at each time point. The rate of intrinsic clearance (Cli) of each test compound was then calculated using the equation Cli (mL/min/g liver)=k×V×microsomal protein yield, where V (mL/mg protein) is the incubation volume/mg protein added and microsomal protein yield is taken as 52.5 mg protein/g liver. Verapamil (0.5 μM) was used as a positive control to confirm acceptable assay performance.

Row | Compound | fraction unbound at 4 h [1] | IC50 [2] [nM] | EC50 ([2]; average of two biological replicates, read-out: L. donovani EC50 (UCSD assay)) [nM] | Whole blood stability (Whole blood stability) | EC50 [3] [nM] | solubility [4] [µg/mL] | half-life at 0.5 μM ([5]; female, CD1, pH 7.4, read-out: Microsomal stability (mouse) t1/2) [min] | Microsomal stability (mouse) Clint [5]
1 | COc1ccc(N2C(=O)c3[nH]nc(CC(C)C)c3C2c2ccc(F)cc2)cc1 (racemic) [Compound 1, 4-(4-fluorophenyl)-3-isobutyl-5-(4-methoxyphenyl)-4,5-dihydropyrrolo[3,4-c]pyrazol-6(1H)-one] | 0.025 | 800 | 820 | Pass | 2500 | 130 (≈ 343 µM) | > 20 | Clint < 3.4 mL/min/g
2 | COc1ccc(N2C(=O)c3[nH]nc(CC(C)C)c3C2c2ccccc2)cc1 (stereo not shown) [Compound 2] |  | 1100 |  |  | 3700 |  |  | 
